From patent US12251366B1, “Sulforaphane-cysteine for wound healing in diabetic subjects” (KUWAIT UNIVERSITY, priority 2024, dated 2025)

Legend:
[1] = test system: Nrf2; experiment: Nrf2 activity (NQO1-ARE luciferase) in fibroblasts; format: cell-based, rat
Procedure: To better characterize how SFN-Cys impacts cellular antioxidant levels, the ability of SFN-Cys to regulate the transcription factor nuclear factor erythroid 2-related factor 2 (Nrf2) was assessed, which is a master regulator of the antioxidative stress response that induces the expression of antioxidant proteins such as heme oxygenase (HO) and NAD(P)H dehydrogenase (quinine; NQO1) and key enzymes in the glutathione system. In this context, Nrf2 transcriptional activity was first measured using a vector encoding luciferase driven by the NQO1 promoter. […] Administration of SNF-Cyst at the above indicated concentration (1.5 μM, the lowest effective concentration) ameliorated diabetes-induced suppression of the Nrf2 activity and Nrf2-target genes including HO and NQO1 (FIG. 2A-D).
CF and DF were transfected with the antioxidative stress response element ARE-luciferase and pRenilla vectors using lipofectamine 2000 (Invitogen, USA). In this context, cells were plated and transfected in 12-well plates. Following treatment with SFN-Cys, cells were lysed and firefly and Renilla luciferase activity was determined using Dual luciferase assay (Promega, USA).

[2] = test system: fibroblasts (CF, DF); experiment: Proliferation of fibroblasts from control and diabetic wounds; format: cell-based, rat; settings: 1.5 μM
Procedure: Successful wound healing necessitates a series of tightly coordinated and overlapping processes including inflammation, new tissue formation and remodeling. Fibroblasts, in response to growth factors-released mostly by macrophages, migrate to the site of injury, where they proliferate and lay down the extracellular matrix (ECM). Consequently, this facilitates cell migration and tissue reconstruction. The effect of a therapeutic concentration of SFN-Cys (1.5 μM) was investigated on the proliferation of fibroblasts isolated from the granulation tissue of control and diabetic wounds. Similarly, the effect of SFN-Cys on cell migration in the in vitro wound closure assay was also considered. […] Accordingly, in vivo wound closure properties of SFN-Cys were examined using an excisional wound healing rat model. SFN-Cys containing Pluronic acid was topically applied to the wound at a dose of 1.5 μmol concentration and the wound closure area was digitally photographed and quantified. Digital photographs were obtained on day-0 through day-7 of post wounding. […] In this context, the wound healing time-course was faster in SFN-Cys containing Pluronic acid than the Pluronic acid alone (FIG. 3C). […] VEGF is a well-established enhancer of the proliferative phase of healing. […]

[3] = test system: endothelial nitric oxide; experiment: Endothelial nitric oxide activity and expression in corpus cavernosum; format: in vivo
From the text: Therapeutic rational was considered for SFN-Cys effectiveness in the following pathological conditions: Sarcopenia-SFN-Cys increased muscle weight in diabetic mice, see FIGS. 4A and 4B; Cardiac fibrosis-SFN-Cys inhibits transforming growth factor beta (TGF-β) expression, see FIG. 4C; Erectile dysfunction-SFN-Cys increased endothelial nitric oxide activity and expression in corpus cavernosum.

[4] = test system: neuronal, vascular, muscle, cardiac and stem cells; experiment: Protection of cells from oxidative stress and inflammation-induced apoptotic cell death; format: cell-based; settings: at certain concentrations
From the text: Thus, SNF-Cys may have a therapeutic benefit in the following conditions in addition to impaired wound healing: Sarcopenia, Fat grafting, Psoriasis, Nerve regeneration and diabetic neuropathy, Erectile dysfunction, and Cardiac fibrosis.

- Nrf2 transcriptional activity (NQO1 promoter luciferase) ([1]; DF and CF-GP, 1.5 μM): ameliorated
SMILES: C[S+]([O-])CCCCNC(=S)SCC(N)C(=O)O (centres unmarked) [SFN-Cys, Sulforaphane-Cysteine]
- lowest effective concentration ([1]; fibroblasts, Nrf2 activity and Nrf2-target genes): 1.5 µM
- cell proliferation [2]: enhanced cell proliferation in both CF and DF
- endothelial nitric oxide activity and expression [3]: increased
- protection from oxidative state and low-grade inflammation-induced apoptotic cell death [4]: protects
